According to BindingDB's records for doi:10.1021/acs.jmedchem.6b00965 (University of Iowa, 2017):

Experiments:
[1] = Activation of BTN3A1 in human Vgamma9Vdelta2 T cells assessed as induction of T effector cells mediated K562 cell lysis preincubated with K562 cells for 2 hrs followed by T effector cell addition measured after 4 hrs
[2] = Activation of BTN3A1 in human Vgamma9Vdelta2 T cells assessed as induction of interleukin 2 stimulated cell proliferation treated for 72 hrs measured on day 11 post last treatment by flow cytometry
[3] = molecular target: T1, Butyrophilin subfamily 3 member A1 (Homo sapiens, UniProt O00481); test: Activation of BTN3A1 in human Vgamma9Vdelta2 T cells assessed as induction of interleukin 2 stimulated cell proliferation treated for 72 hrs measured on day 11 post last treatment by flow cytometry
[4] = molecular target: T1, Butyrophilin subfamily 3 member A1; test: Activation of BTN3A1 in human Vgamma9Vdelta2 T cells assessed as induction of T effector cells mediated K562 cell lysis preincubated with K562 cells for 2 hrs followed by T effector cell addition measured after 4 hrs

T1 sequence (O00481 whole entry): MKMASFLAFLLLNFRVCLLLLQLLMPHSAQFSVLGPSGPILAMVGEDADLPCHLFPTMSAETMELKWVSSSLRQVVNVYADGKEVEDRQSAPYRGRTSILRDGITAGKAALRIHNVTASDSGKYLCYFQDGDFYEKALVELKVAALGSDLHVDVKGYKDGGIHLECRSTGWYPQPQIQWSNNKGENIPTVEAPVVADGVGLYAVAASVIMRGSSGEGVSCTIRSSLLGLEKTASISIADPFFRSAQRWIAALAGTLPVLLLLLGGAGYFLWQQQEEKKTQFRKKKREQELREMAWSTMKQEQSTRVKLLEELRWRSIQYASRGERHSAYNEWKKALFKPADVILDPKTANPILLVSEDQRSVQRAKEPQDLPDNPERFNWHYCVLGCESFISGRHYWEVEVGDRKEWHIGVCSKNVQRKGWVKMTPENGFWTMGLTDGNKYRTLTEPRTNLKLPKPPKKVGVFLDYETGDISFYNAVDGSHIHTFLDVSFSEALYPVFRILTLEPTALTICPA

Structure (SMILES)	EC50 [1] [µM]	EC50 [2] [µM]	EC50 [3] [µM]	EC50 [4] [µM]
C/C(=C\CCP(=O)(CP(=O)(OCOC(=O)C(C)(C)C)OCOC(=O)C(C)(C)C)OCOC(=O)C(C)(C)C)CO (stereo not drawn)	0.28	–	–	–
CC(C)=CCCP(=O)(CP(=O)(OCOC(=O)C(C)(C)C)OCOC(=O)C(C)(C)C)OCOC(=O)C(C)(C)C (stereo not drawn)	7.3	> 100	–	–
[C]C([C])=[C][C][C]P(=O)(O)[C]P(=O)(O)O	–	–	> 100	> 100
COP(=O)(CC/C=C(\C)CO)CP(=O)(OC)OC (stereo not drawn)	> 100	> 100	–	–
CC(=CCCP(=O)(O)CP(=O)(O)O)CO	41	–	–	–
